Article PMC3824017 (The Journal of Cell Biology, 2013)

Legend:
[1] = biological target: T1, erlin-1 (Homo sapiens, UniProt O75477); type: binding
T1 sequence (O75477 1-348): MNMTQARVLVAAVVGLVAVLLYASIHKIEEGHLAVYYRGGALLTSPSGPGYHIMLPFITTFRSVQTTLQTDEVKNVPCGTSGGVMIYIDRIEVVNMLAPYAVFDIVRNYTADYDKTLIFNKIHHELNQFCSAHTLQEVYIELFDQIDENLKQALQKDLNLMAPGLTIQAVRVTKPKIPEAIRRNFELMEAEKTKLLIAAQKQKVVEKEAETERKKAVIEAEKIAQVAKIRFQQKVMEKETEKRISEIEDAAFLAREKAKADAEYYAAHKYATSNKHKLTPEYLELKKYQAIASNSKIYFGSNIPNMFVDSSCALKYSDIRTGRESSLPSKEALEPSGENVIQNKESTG

[2] = biological target: T2, erlin-2 (native erlin-1/2 complex) (Mus musculus, UniProt Q8BFZ9+Q91X78); type: binding
T2 sequence (Q8BFZ9 1-340): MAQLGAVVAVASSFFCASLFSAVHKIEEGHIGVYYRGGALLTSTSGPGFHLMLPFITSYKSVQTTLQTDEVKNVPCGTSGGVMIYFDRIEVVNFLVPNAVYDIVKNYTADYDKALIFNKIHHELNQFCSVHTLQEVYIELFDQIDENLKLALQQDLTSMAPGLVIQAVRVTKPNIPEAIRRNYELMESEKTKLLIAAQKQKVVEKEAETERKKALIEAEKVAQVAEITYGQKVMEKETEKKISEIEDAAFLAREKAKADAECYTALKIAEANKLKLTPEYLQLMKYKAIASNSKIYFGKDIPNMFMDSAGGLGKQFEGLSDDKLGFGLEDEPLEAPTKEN
T2 sequence (Q91X78 1-348): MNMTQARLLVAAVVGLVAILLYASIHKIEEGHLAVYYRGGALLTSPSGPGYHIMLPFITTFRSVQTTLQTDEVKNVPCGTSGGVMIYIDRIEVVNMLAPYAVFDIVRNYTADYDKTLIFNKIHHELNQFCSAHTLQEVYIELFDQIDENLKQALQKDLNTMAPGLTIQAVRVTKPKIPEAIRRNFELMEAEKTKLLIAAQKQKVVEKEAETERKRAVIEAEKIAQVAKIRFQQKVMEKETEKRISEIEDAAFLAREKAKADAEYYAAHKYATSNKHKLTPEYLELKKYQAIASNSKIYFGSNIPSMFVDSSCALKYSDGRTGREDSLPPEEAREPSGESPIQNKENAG

Kd [1]: 13.2 µM
Kd [2]: 13.4 µM
Compound: CC(C)CCC[C@@H](C)[C@H]1CC[C@H]2[C@@H]3CC=C4C[C@@H](O)CC[C@]4(C)[C@H]3CC[C@]12C [cholesterol]
